Test results taken from ChEMBL document CHEMBL2073845, “Structure, function, and regional distribution of the organic cation transporter OCT3 in the kidney” (Am J Physiol Renal Physiol, 2000).

Legend:
[1] = target: T1, Solute carrier family 22 member 3 (Mus musculus, UniProt Q9WTW5); assay: TP_TRANSPORTER: uptake in Xenopus laevis oocytes; format: functional, cell-based; details: oocyte
T1 sequence (Q9WTW5 whole entry): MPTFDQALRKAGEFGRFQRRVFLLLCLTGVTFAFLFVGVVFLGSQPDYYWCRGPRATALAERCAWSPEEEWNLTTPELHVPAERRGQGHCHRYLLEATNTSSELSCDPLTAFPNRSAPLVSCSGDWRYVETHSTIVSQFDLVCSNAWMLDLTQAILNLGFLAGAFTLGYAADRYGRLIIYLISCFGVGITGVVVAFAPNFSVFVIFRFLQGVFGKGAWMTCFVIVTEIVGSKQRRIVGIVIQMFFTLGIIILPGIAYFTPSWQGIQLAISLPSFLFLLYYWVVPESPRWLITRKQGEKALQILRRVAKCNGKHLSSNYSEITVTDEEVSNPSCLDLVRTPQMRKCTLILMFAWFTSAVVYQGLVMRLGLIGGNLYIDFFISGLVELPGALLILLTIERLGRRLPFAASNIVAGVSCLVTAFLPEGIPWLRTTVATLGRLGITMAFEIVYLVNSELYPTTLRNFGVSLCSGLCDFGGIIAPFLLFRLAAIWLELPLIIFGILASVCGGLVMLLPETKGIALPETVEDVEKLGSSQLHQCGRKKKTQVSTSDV

[2] = target: T2, Solute carrier family 22 member 3 (Homo sapiens, UniProt O75751); assay: TP_TRANSPORTER: inhibition of MPP+ uptake in OCT3-expressing HRPE cells; format: functional, cell-based
T2 sequence (O75751 whole entry): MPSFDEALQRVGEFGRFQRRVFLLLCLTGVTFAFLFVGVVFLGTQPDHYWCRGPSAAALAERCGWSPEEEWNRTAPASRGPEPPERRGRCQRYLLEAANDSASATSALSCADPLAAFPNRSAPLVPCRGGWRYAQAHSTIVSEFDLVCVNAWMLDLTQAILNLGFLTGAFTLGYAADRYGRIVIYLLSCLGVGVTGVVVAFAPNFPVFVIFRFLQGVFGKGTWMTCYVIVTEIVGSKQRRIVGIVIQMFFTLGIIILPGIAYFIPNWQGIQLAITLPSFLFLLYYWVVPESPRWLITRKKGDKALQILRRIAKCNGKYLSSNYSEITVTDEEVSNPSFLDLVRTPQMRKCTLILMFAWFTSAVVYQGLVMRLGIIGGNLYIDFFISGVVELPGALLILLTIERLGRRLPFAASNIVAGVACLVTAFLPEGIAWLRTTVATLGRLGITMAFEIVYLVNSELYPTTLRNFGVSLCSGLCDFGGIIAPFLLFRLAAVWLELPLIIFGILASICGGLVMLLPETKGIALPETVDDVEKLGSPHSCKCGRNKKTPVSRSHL

[3] = target: T1, Solute carrier family 22 member 3; assay: TP_TRANSPORTER: inhibition of TEA uptake (TEA: 20 uM, Guanidine: 5000 uM) in OCT3-expressing HRPE cells; format: functional, cell-based; details: human
OCT3 (SLC22A3) [4] = target: T3, OCT3 (SLC22A3) (Mus musculus, UniProt Q9WTW5); assay: TP_TRANSPORTER: inhibition of TEA uptake (TEA: 20 uM, MPP+: 5000 uM) in OCT3-expressing HRPE cells; format: functional, cell-based; details: human, HRPE cells that express OCT3, probe TEA
T3 sequence (Q9WTW5 whole entry): T1 sequence (Q9WTW5 whole entry)

[5] = target: T2, Solute carrier family 22 member 3; assay: TP_TRANSPORTER: uptake in OCT3-expressing HRPE cells; format: functional, cell-based
OCT3 (SLC22A3) [6] = target: T3, OCT3 (SLC22A3); assay: TP_TRANSPORTER: inhibition of TEA uptake (TEA: 20 uM, MPTP: 5000 uM) in OCT3-expressing HRPE cells; format: functional, cell-based; details: human, HRPE cells that express OCT3, probe TEA
OCT3 (SLC22A3) [7] = target: T3, OCT3 (SLC22A3); assay: in vitro; details: human, HRPE cells that express OCT3, probe TEA
OCT3 (SLC22A3) [8] = target: T3, OCT3 (SLC22A3); assay: in vitro; details: human, HRPE cells that express OCT3, probe TEA; remark: listed apart in the source
[9] = target: T1, Solute carrier family 22 member 3; assay: TP_TRANSPORTER: inhibition of TEA uptake (TEA: 20 uM, NMN: 5000 uM) in OCT3-expressing HRPE cells; format: functional, cell-based; details: human
[10] = substrate: CC[N+](CC)(CC)CC; assay: cells, lysate or membranes named

Question: `N=C(N)N` [GUANIDINE] was tested. Which Activity [1] did it give?
Answer: substrate [+]

Question: And the Ki [2]?
Answer: 6200 µM

Question: What about the Inhibition [3] of the same molecule?
Answer: inhibitor [60-70 % inhibition]

Question: How did the Activity [1] turn out when `C[n+]1ccc(-c2ccccc2)cc1` was run?
Answer: substrate [+]

Question: And the inhibition at 5000 µM (OCT3 (SLC22A3) [4])?
Answer: > 90%

Question: And the Ki [2]?
Answer: 54 µM

Question: `CC[N+](CC)(CC)CC` [TETRYLAMMONIUM] was tested. Which Activity [1] did it give?
Answer: substrate [+]

Question: What about the Ki [2] of the same molecule?
Answer: 1370 µM

Question: What about the Activity [5] of the same molecule?
Answer: substrate [+]

Question: Which inhibition at 5000 µM (OCT3 (SLC22A3) [6]) does the source give for `CN1CC=C(c2ccccc2)CC1` here?
Answer: > 90%

Question: How did the Ki [2] turn out when `CNCCCN1c2ccccc2CCc2ccccc21` [DESIPRAMINE] was run?
Answer: 14 µM

Question: For `CN/C(=N/CCSCc1nc[nH]c1C)NC#N` [CIMETIDINE], which inhibition at 5000 µM (OCT3 (SLC22A3) [7]) is on record?
Answer: > 90%

Question: How did the Ki [2] turn out when `CCN(CC)CCNC(=O)c1ccc(N)cc1` [PROCAINAMIDE] was run?
Answer: 738 µM

Question: Which Ki [2] does the source give for `CN(C)CCCN1c2ccccc2CCc2ccccc21` [IMIPRAMINE] here?
Answer: 42 µM

Question: What does the source list for `Clc1cccc(Cl)c1N=C1NCCN1` [CLONIDINE]?
Answer: Ki [2]: 373 µM; inhibition at 5000 µM (OCT3 (SLC22A3) [8]): > 90%

Question: With `CNC(=O)c1cccnc1` [NICOTINYL METHYLAMIDE] as the molecule, how does the Inhibition [9] read?
Answer: inhibitor [60-70 % inhibition]

B1: Solute carrier family 22 member 3 (Mus musculus) (protein)
chain: T1 sequence (Q9WTW5 whole entry)
Question: For B1, which Km [10] is on record?
Answer: 1900 µM
